Data from patent publication US8598211B2, “Carboxamide compounds and their use as calpain inhibitors IV” (AbbVie Inc., priority 2009, dated 2013).

Key:
Assay type in all cases: biochemical
cathepsin K = molecular target: T1, cathepsin K (Homo sapiens, UniProt P43235); assay: Cathepsin K kinetic fluorescence enzyme inhibition assay; details: selectivity ratio versus calpain
T1 construct: purchased Calbiochem 342001; host or cells: E. coli
T1 sequence (P43235 115-329): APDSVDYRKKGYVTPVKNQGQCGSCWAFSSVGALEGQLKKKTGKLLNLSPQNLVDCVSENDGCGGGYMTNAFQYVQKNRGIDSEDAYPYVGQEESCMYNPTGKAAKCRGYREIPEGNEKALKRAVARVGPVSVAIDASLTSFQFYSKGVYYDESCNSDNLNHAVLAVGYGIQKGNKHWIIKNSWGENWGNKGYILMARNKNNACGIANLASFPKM
Method: 3 nM cathepsin K—activated from recombinant human procathepsin K from E. coli (Calbiochem #342001), 10 μM Z-Gly-Pro-Arg-AMC (Biomol #P-142) as substrate in 50 mM MES, 2 mM EDTA, 0.05% Brij 35, 2.5 mM L-cysteine, pH 6.0, room temperature.

calpain-I = molecular target: T2, calpain-I (Homo sapiens, UniProt P07384); assay: Calpain I kinetic fluorescence enzyme inhibition assay; details: calpain-I from human erythrocytes, Suc-Leu-Tyr-AMC, pH 7.3; apparent Ki from IC50 by Cheng-Prussoff
T2 construct: calpain-I—isolated from human erythrocytes; purchased Calbiochem 208713; host or cells: human erythrocytes (natural source)
T2 sequence (P07384 1-714): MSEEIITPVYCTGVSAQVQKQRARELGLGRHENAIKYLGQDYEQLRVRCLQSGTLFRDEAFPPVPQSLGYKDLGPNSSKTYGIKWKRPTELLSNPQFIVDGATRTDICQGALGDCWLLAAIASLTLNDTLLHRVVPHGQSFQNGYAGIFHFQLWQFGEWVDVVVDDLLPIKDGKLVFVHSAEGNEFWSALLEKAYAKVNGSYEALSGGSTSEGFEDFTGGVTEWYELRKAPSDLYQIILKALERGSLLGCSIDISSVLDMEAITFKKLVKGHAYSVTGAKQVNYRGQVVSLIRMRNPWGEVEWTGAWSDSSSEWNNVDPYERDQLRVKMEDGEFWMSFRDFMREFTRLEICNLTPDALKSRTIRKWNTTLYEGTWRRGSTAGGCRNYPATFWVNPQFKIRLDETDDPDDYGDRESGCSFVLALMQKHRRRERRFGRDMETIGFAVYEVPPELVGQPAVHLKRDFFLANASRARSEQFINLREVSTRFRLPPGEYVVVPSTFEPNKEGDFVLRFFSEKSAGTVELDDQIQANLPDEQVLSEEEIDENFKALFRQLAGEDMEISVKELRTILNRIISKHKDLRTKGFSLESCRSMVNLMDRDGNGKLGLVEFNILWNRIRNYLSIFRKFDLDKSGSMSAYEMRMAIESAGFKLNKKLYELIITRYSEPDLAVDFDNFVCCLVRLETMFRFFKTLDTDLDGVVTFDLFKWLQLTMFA
T2 sequence (P04632 1-268 partner): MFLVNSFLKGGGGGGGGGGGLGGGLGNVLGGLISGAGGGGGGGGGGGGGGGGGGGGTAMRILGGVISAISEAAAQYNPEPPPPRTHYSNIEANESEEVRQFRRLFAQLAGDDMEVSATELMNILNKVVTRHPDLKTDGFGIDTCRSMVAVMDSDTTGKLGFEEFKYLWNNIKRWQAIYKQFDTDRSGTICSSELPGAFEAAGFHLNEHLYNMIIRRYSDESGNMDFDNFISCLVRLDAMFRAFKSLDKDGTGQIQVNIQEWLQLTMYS
Method: Testing for blockade of the corresponding enzymic activities was carried out by means of kinetic fluorescence assays (excitation 390 nm, emission 460 nm).
Apparent Ki values were calculated from the experimentally determined IC50 values by the Cheng-Prussoff relation assuming a reversible competitive enzyme inhibition.
20 nM calpain-I—isolated from human erythrocytes (Calbiochem #208713), 100 μM Suc-Leu-Tyr-AMC (Bachem #I-1355) as substrate in buffer with 62 mM imidazole, 0.3 mM CaCl2, 0.10% CHAPS, 0.05% BSA, 1 mM DTT at pH 7.3 and room temperature.

cathepsin B = molecular target: T3, cathepsin B (Homo sapiens, UniProt P07858); assay: Cathepsin B kinetic fluorescence enzyme inhibition assay; details: selectivity ratio versus calpain
T3 construct: cathepsin B—isolated from human liver; purchased Calbiochem 219362; host or cells: human liver (natural source)
Method: 0.25 nM cathepsin B—isolated from human liver (Calbiochem #219362), 100 μM Z-Phe-Arg-AMC (Bachem #I-1160) as substrate 50 mM MES, 2 mM EDTA, 0.05% Brij 35, 2.5 mM L-cysteine, pH 6.0, room temperature.

cathepsin L = molecular target: T4, cathepsin L (Homo sapiens, UniProt P07711); assay: Cathepsin L kinetic fluorescence enzyme inhibition assay; details: selectivity ratio versus calpain
T4 construct: cathepsin L—isolated from human liver; purchased Calbiochem 219402; host or cells: human liver (natural source)
Method: 1 nM cathepsin L—isolated from human liver (Calbiochem #219402), 2 μM Z-Phe-Arg-AMC (Bachem #I-1160) as substrate in 50 mM MES, 2 mM EDTA, 0.05% Brij 35, 2.5 mM L-cysteine, pH 6.0, room temperature.

cathepsin S = molecular target: T5, cathepsin S (Homo sapiens, UniProt P25774); assay: Cathepsin S kinetic fluorescence enzyme inhibition assay; details: selectivity ratio versus calpain
T5 construct: purchased Calbiochem 219343; host or cells: E. coli
T5 sequence (P25774 115-331): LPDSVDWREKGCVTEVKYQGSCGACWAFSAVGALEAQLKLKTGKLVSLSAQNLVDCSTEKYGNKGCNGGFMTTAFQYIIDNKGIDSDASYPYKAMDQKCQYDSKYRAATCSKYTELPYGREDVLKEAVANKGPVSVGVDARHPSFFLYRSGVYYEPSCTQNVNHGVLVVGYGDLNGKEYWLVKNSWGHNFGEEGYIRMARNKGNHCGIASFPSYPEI
Method: 0.5 nM recombinant human cathepsin S from E. coli (Calbiochem #219343), 20 μM Z-Val-Val-Arg-AMC (Bachem #I-1540) as substrate in 50 mM MES, 2 mM EDTA, 0.05% Brij 35, 2.5 mM L-cysteine, pH 6.0, room temperature.

T4 sequence (P07711 114-333): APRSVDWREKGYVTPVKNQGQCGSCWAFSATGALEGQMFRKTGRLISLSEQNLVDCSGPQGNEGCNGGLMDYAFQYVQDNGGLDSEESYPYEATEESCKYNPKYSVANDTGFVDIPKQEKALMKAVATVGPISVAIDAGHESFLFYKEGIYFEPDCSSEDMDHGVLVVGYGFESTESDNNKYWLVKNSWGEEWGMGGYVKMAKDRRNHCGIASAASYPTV

Row | Structure (SMILES) | Sel cat. K (Ki(cathepsin K)/Ki(calpain) ratio) (cathepsin K) | Ki (calpain-I) | Sel cat. B (Ki(cathepsin B)/Ki(calpain) ratio) (cathepsin B) | Sel cat. L (Ki(cathepsin L)/Ki(calpain) ratio) (cathepsin L) | Sel cat. S (Ki(cathepsin S)/Ki(calpain) ratio) (cathepsin S)
1 | COc1ccc(CC(NC(=O)c2cccnc2-n2ccc(-c3ccccc3)n2)C(=O)C(=O)NC2CC2)cc1 (stereo not drawn) [Example 22, N-[4-(Cyclopropylamino)-1-(4-methoxyphenyl)-3,4-dioxo-2-butanyl]-2-(3-phenyl-1H-pyrazol-1-yl)nicotinamide] | ++ (9<Ki(cathepsin K)/Ki(calpain)≦30) | 0.25 to 0.4 µM | ++ (9<Ki(cathepsin B)/Ki(calpain)≦30) | ++ (10<Ki(cathepsin L)/Ki(calpain)≦50) | ++ (10<Ki(cathepsin S)/Ki(calpain)≦50)
2 | O=C(NC1CC1)C(=O)C(Cc1ccccc1)NC(=O)[C@H]1CCC(=O)N1Cc1ccccc1F (mixture of isomers) [Example 30, (2R)—N-(4-(cyclopropylamino)-3,4-dioxo-1-phenylbutan-2-yl)-1-(2-fluorobenzyl)-5-oxopyrrolidine-2-carboxamide] | +++ (Ki(cathepsin K)/Ki(calpain) ratio of >30) | 0.4 to 0.8 µM | ++ (9<Ki(cathepsin B)/Ki(calpain)≦30) | ++ (10<Ki(cathepsin L)/Ki(calpain)≦50) | +++ (Ki(cathepsin S)/Ki(calpain) ratio of >50)
3 | O=C(NCCc1ccccc1)C(=O)C(Cc1ccccc1)NC(=O)c1cccnc1-n1ccc(-c2ccc(F)cc2)n1 (stereo not drawn) [Example 1, N-{3,4-Dioxo-1-phenyl-4-[(2-phenylethyl)amino]butan-2-yl}-2-[3-(4-fluorophenyl)-1H-pyrazol-1-yl]pyridine-3-carboxamide] | ++ (9<Ki(cathepsin K)/Ki(calpain)≦30) | 0.25 to 0.4 µM | ++ (9<Ki(cathepsin B)/Ki(calpain)≦30) | ++ (10<Ki(cathepsin L)/Ki(calpain)≦50) | ++ (10<Ki(cathepsin S)/Ki(calpain)≦50)
4 | O=C(NCc1nc2ccccc2[nH]1)C(=O)C(Cc1ccccc1)NC(=O)c1cccnc1-n1ccc(-c2ccccc2)n1 (stereo not drawn) [Example 20, N-{4-[(1H-Benzimidazol-2-ylmethyl)amino]-3,4-dioxo-1-phenyl-2-butanyl}-2-(3-phenyl-1H-pyrazol-1-yl)nicotinamide] | ++ (9<Ki(cathepsin K)/Ki(calpain)≦30) | 0.8 to 1 µM | ++ (9<Ki(cathepsin B)/Ki(calpain)≦30) | ++ (10<Ki(cathepsin L)/Ki(calpain)≦50) | ++ (10<Ki(cathepsin S)/Ki(calpain)≦50)

Other lines, results leading:

Row | Sel cat. K (Ki(cathepsin K)/Ki(calpain) ratio) (cathepsin K) | Ki (calpain-I) | Sel cat. B (Ki(cathepsin B)/Ki(calpain) ratio) (cathepsin B) | Sel cat. L (Ki(cathepsin L)/Ki(calpain) ratio) (cathepsin L) | Sel cat. S (Ki(cathepsin S)/Ki(calpain) ratio) (cathepsin S) | Structure (SMILES)
5 | ++ (9<Ki(cathepsin K)/Ki(calpain)≦30) | 0.25 to 0.4 µM | ++ (9<Ki(cathepsin B)/Ki(calpain)≦30) | ++ (10<Ki(cathepsin L)/Ki(calpain)≦50) | ++ (10<Ki(cathepsin S)/Ki(calpain)≦50) | O=C(NCCc1ccccn1)C(=O)C(Cc1ccccc1)NC(=O)c1cccnc1-n1ccc(-c2ccc(F)cc2)n1 (stereo not drawn) [Example 3, N-(3,4-Dioxo-1-phenyl-4-{[2-(pyridin-2-yl)ethyl]amino}butan-2-yl)-2-[3-(4-fluorophenyl)-1H-pyrazol-1-yl]pyridine-3-carboxamide]
6 | ++ (9<Ki(cathepsin K)/Ki(calpain)≦30) | 0.4 to 0.8 µM | + (5≦Ki(cathepsin B)/Ki(calpain)≦9) | ++ (10<Ki(cathepsin L)/Ki(calpain)≦50) | ++ (10<Ki(cathepsin S)/Ki(calpain)≦50) | O=C(NC1CC1)C(=O)C(Cc1ccccc1)NC(=O)c1cccnc1-n1ccc(-c2cccc(N3CCOCC3)c2)n1 (stereo not drawn) [Example 26, N-[4-(Cyclopropylamino)-3,4-dioxo-1-phenyl-2-butanyl]-2-{3-[3-(4-morpholinyl)phenyl]-1H-pyrazol-1-yl}nicotinamide]
